Tests used:
[1] = target: T1, IRAK4 (Homo sapiens, UniProt Q9NWZ3); experiment: IRAK4 protein degradation in THP1 cells (Western blot); format: cell-based; conditions: THP-1 cells, 24 h
T1 construct: Effect of the Compounds on IRAK4 Protein Degradation in THP1 Cells; endogenous in cells; host or cells: THP-1 cells
T1 sequence (Q9NWZ3 1-460): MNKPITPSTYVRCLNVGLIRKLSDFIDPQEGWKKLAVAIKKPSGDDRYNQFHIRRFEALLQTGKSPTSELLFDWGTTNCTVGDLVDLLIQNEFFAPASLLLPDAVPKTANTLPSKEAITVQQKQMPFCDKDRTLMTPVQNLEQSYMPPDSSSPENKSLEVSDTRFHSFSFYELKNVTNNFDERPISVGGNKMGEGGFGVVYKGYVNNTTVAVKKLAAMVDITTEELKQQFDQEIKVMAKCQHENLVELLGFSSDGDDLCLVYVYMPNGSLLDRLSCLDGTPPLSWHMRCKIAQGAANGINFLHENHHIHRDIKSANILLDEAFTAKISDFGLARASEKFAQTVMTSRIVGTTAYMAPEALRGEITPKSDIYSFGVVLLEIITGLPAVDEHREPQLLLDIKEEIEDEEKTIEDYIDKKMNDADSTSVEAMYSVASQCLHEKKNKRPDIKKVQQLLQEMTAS
Description: THP-1 cells were seeded into a 96-well cell culture plate, with 2×10^5 cells and 90 μL of culture medium per well. The cell culture plate was cultured in an incubator with 5% CO2 at 37° C. overnight. The compound was dissolved in DMSO to prepare a stock solution, which was serially diluted into a series of working solutions with a 5-fold concentration gradient using the culture medium and then added to the aforementioned 96-well plate at 10 μL per well. The cell culture plate was further incubated for 24 h in a 5% CO2 incubator at 37° C. After incubation, the 96-well plate was centrifuged and the supernatant was discarded, followed by adding 40 μL of cell lysis buffer containing […]/phosphatase inhibitors to each well for sufficient lysis on an ice bath. Protein quantification was performed using the BCA protein quantification kit, followed by the preparation of Western blot samples. […] After electrophoresis, protein transfer was performed using a PVDF membrane under ice bath conditions for 1 h. After the transfer was completed, the PVDF membrane was blocked with gentle shaking in 5% skim milk at room temperature for 1 h. After blocking, the PVDF membrane was incubated with the primary antibody overnight with gentle shaking at 4° C. The PVDF membrane was washed 3 times with TBST, then the secondary antibody was added and incubated for 1 h with gentle shaking at room temperature, followed by washing of the PVDF membrane with TBST for 3 times. After the washes were completed, the chemiluminescent substrate was added; the PVDF membrane was scanned using a Clinx imager, semi-quantitative analysis was performed with ImageJ software, and the DC50 was calculated using GraphPad Prism 8.0.

[2] = test system: LPS/IL-1β-induced IL-6 secretion in human peripheral blood mononuclear cells (PBMCs); experiment: Inhibition of LPS/IL-1β-induced IL-6 secretion in human PBMCs (IL-6 ELISA); format: cell-based; conditions: PBMC, LPS 10 ng/mL + IL-1β 20 ng/mL, 24 h pre-incubation, 20 h stimulation
Description: This experiment was carried out in RPMI 1640 medium containing 10% FBS and 1% penicillin/streptomycin, with each of the compounds at an initial test concentration of 1 μM.
The compound was dissolved in DMSO to prepare a stock solution, which was serially diluted into some working solutions with a 5-fold concentration gradient using the culture medium and then added to a 96-well plate at 10 μL per well. PBMCs (Batch No.: P122101102C; Milecell Biotechnology Inc.) were counted and diluted to a cell concentration of about 1.3×10^6 cells/mL, and then added to the aforementioned compound-containing 96-well plate at 150 μL per well. The system was mixed well and incubated in a 5% CO2 incubator at 37° C. for 24 h. Then 5 μL of LPS (final concentration: 10 ng/mL) and 5 μL of IL-1β (final concentration: 20 ng/mL) were added to each well, respectively, and the culture was continued for 20 h in a 5% CO2 incubator at 37° C. After incubation, the 96-well plate was centrifuged at 2000 rpm for 4 min. The supernatant was collected and diluted 200-fold, then detected using an IL-6 ELISA kit. The OD450 values were read, and converted to IL-6 concentrations based on a standard curve. The dose-response curves were fitted using GraphPad 8.0 to calculate the IC50 values.

SMILES	DC50 [1] [nM]	IC50 [2] [nM]
CN(C)c1cc2nn(C3CCN(C[C@H]4CC[C@H](n5cc6ccc(C7CCC(=O)NC7=O)cc6n5)CC4)CC3)cc2cc1NC(=O)c1cnn2cccnc12 (stereo partly shown) [TM-5]	4.62	0.26
CN(C)c1cc2nn(C3CCN(C[C@H]4CC[C@H](n5cc6cc(C7CCC(=O)NC7=O)ccc6n5)CC4)CC3)cc2cc1NC(=O)c1cnn2cccnc12 (stereo partly shown) [TM-7]	3.73	0.18
CN(C)c1cc2nn([C@H]3CC[C@H](CN4CCC(n5cc6cc(N7CCC(=O)NC7=O)c(F)cc6n5)CC4)CC3)cc2cc1NC(=O)c1cnn2cccnc12 [TM-9]	5.41	2.03
CN(C)c1cc2nn([C@H]3CC[C@H](CN4CCC(n5cc6cc(F)c(N7CCC(=O)NC7=O)cc6n5)CC4)CC3)cc2cc1NC(=O)c1cnn2cccnc12 [TM-10]	4	1.34
CN(C)c1cc2nn([C@H]3CC[C@H](CN4CC[C@@H](n5cc6cc(N7CCC(=O)NC7=O)ccc6n5)[C@@H](F)C4)CC3)cc2cc1NC(=O)c1cnn2cccnc12 [TM-15]	1.41	4
CN(C)c1cc2nn([C@H]3CC[C@H](CN4CC[C@@H](n5cc6cc(N7CCC(=O)NC7=O)ccc6n5)[C@H](F)C4)CC3)cc2cc1NC(=O)c1cnn2cccnc12 [TM-16]	0.41	4.59
CN(C)c1cc2nn([C@H]3CC[C@H](CN4CC[C@H](n5cc6cc(N7CCC(=O)NC7=O)ccc6n5)[C@@H](F)C4)CC3)cc2cc1NC(=O)c1cnn2cccnc12 [TM-17]	1.19	3.37
CN(C)c1cc2nn([C@H]3CC[C@H](CN4CC[C@H](n5cc6cc(N7CCC(=O)NC7=O)ccc6n5)[C@H](F)C4)CC3)cc2cc1NC(=O)c1cnn2cccnc12 [TM-18]	1.2	3.72
C[C@H]1CN(C[C@H]2CC[C@H](n3cc4cc(NC(=O)c5cnn6cccnc56)c(N(C)C)cc4n3)CC2)CC[C@@H]1n1cc2ccc(N3CCC(=O)NC3=O)cc2n1 [TM-27]	4.27	1.49
CN(C)c1cc2nn([C@H]3CC[C@H](CN4CC[C@@H](n5cc6ccc(N7CCC(=O)NC7=O)cc6n5)[C@@H](F)C4)CC3)cc2cc1NC(=O)c1cnn2cccnc12 [TM-29]	1.13	0.88
CN(C)c1cc2nn([C@H]3CC[C@H](CN4CC[C@@H](n5cc6ccc(N7CCC(=O)NC7=O)cc6n5)[C@H](F)C4)CC3)cc2cc1NC(=O)c1cnn2cccnc12 [TM-30]	1.33	1.05
CN(C)c1cc2nn([C@H]3CC[C@H](CN4CC[C@H](n5cc6ccc(N7CCC(=O)NC7=O)cc6n5)[C@@H](F)C4)CC3)cc2cc1NC(=O)c1cnn2cccnc12 [TM-31]	4.06	3.29
CN(C)c1cc2nn([C@H]3CC[C@H](CN4CC[C@H](n5cc6ccc(N7CCC(=O)NC7=O)cc6n5)[C@H](F)C4)CC3)cc2cc1NC(=O)c1cnn2cccnc12 [TM-32]	1.4	1.21
CO[C@H]1CN(C[C@H]2CC[C@H](n3cc4cc(NC(=O)c5cnn6cccnc56)c(N(C)C)cc4n3)CC2)CC[C@H]1n1cc2ccc(N3CCC(=O)NC3=O)cc2n1 [TM-33]	2.86	0.87
CN(C)c1cc2nn([C@H]3CC[C@H](CN4CC[C@@H](n5cc6cc(N7CCC(=O)NC7=O)c(F)cc6n5)[C@H](F)C4)CC3)cc2cc1NC(=O)c1cnn2cccnc12 [TM-41]	< 1	3.89
CN(C)c1cc2nn([C@H]3CC[C@H](CN4CC[C@@H](n5cc6cc(N7CCC(=O)NC7=O)c(F)cc6n5)[C@@H](F)C4)CC3)cc2cc1NC(=O)c1cnn2cccnc12 [TM-42]	0.93	1.65
O=C1CCN(c2ccc3cn(C4CCN(C[C@H]5CC[C@H](n6cc7cc(NC(=O)c8cnn9cccnc89)c(N8CCOCC8)cc7n6)CC5)CC4)nc3c2)C(=O)N1 [TM-43]	4.31	8.92

Second part, led by results:

DC50 [1] [nM]	SMILES	IC50 [2] [nM]
23.3	CN(C)c1cc2nn(C3CCN(C[C@H]4CC[C@H](n5cc6cc(N7CCC(=O)NC7=O)c(F)cc6n5)CC4)CC3)cc2cc1NC(=O)c1cnn2cccnc12 [TM-51]	3.14
9.64	CN(C)c1cc2nn([C@H]3CC[C@H](CN4CCCN(c5nc6cc(N7CCC(=O)NC7=O)ccc6s5)CC4)CC3)cc2cc1NC(=O)c1cnn2cccnc12 [TM-59]	10.9
19.9	CN(C)c1cc2nn([C@H]3CC[C@H](CN4CC5(CCN(c6nc7ccc(N8CCC(=O)NC8=O)cc7s6)CC5)C4)CC3)cc2cc1NC(=O)c1cnn2cccnc12 [TM-67]	4.01
3.82	CN(C)c1cc2nn([C@H]3CC[C@H](CN4CCN(c5nc6cc(C7CCC(=O)NC7=O)ccc6o5)CC4)CC3)cc2cc1NC(=O)c1cnn2cccnc12 (stereo partly shown) [TM-106]	2.52
4.26	CN(C)c1cc2nn([C@H]3CC[C@H](CN4CC[C@H](n5cc6cc(N7CCC(=O)NC7=O)c(F)cc6n5)[C@H](F)C4)CC3)cc2cc1NC(=O)c1cnn2cccnc12 [TM-130]	5.12
0.81	CN(C)c1cc2nn([C@H]3CC[C@H](CN4CC[C@H](n5cc6cc(N7CCC(=O)NC7=O)c(F)cc6n5)[C@@H](F)C4)CC3)cc2cc1NC(=O)c1cnn2cccnc12 [TM-131]	5.07
< 1	CN(C)c1cc2nn([C@H]3CC[C@H](CN4CC[C@@H](n5cc6cc(F)c(C7CCC(=O)NC7=O)cc6n5)[C@@H](F)C4)CC3)cc2cc1NC(=O)c1cnn2cccnc12 (stereo partly shown) [TM-139]	4.35
4.33	CN(C)c1cc2nn([C@H]3CC[C@H](CN4CCC5(CC4)C[C@@H](n4cc6cc(C7CCC(=O)NC7=O)c(F)cc6n4)CO5)CC3)cc2cc1NC(=O)c1cnn2cccnc12 (stereo partly shown) [TM-141]	4.49
0.77	C[C@@H]1CN(C[C@H]2CC[C@H](n3cc4cc(NC(=O)c5cnn6cccnc56)c(N(C)C)cc4n3)CC2)CC[C@H]1n1cc2ccc(C3CCC(=O)NC3=O)cc2n1 (stereo partly shown) [TM-142]	0.88
135	CN(C)c1cc2nn([C@H]3CC[C@H](CN4CCC(N5Cc6ccc(N7CCC(=O)NC7=O)cc6C5=O)CC4)CC3)cc2cc1NC(=O)c1cnn2cccnc12 [TM-143]	11.9
3.82	CN(C)c1cc2nn([C@H]3CC[C@H](CN4C[C@@H]5[C@H](C4)[C@H]5n4cc5ccc(N6CCC(=O)NC6=O)cc5n4)CC3)cc2cc1NC(=O)c1cnn2cccnc12 [TM-182]	–
0.98	CN(C)c1cc2nn([C@H]3CC[C@H](CN4CCC(c5nc6ccc(N7CCC(=O)NC7=O)cc6o5)CC4)CC3)cc2cc1NC(=O)c1cnn2cccnc12 [TM-186]	–
1.79	CN(C)c1cc2nn([C@H]3CC[C@H](CN4C[C@@H](F)[C@H](n5cc6ccc(N7CCC(=O)NC7=O)cc6n5)C4)CC3)cc2cc1NC(=O)c1cnn2cccnc12 [TM-200]	–
1.69	CN(C)c1cc2nn(C3CCC(CN4CCC[C@H](n5cc6cc(N7CCC(=O)NC7=O)ccc6n5)C4)CC3)cc2cc1NC(=O)c1cnn2cccnc12 (stereo partly shown) [TM-204]	–
1.74	CN(C)c1cc2nn([C@H]3CC[C@H](CN4CC[C@H](F)[C@@H](n5cc6ccc(N7CCC(=O)NC7=O)cc6n5)C4)CC3)cc2cc1NC(=O)c1cnn2cccnc12 [TM-213]	–
1.21	CN(C)c1cc2nn([C@H]3CC[C@H](CN4CC[C@H](F)[C@@H](n5cc6cc(N7CCC(=O)NC7=O)ccc6n5)C4)CC3)cc2cc1NC(=O)c1cnn2cccnc12 [TM-214]	–
0.95	CN(C)c1cc2nn([C@H]3CC[C@H](CN4CC5(CC(n6cc7ccc(N8CCC(=O)NC8=O)cc7n6)C5)C4)CC3)cc2cc1NC(=O)c1cnn2cccnc12 [TM-215]	–

Reference: US20260216348A1, “IRAK DEGRADATION AGENT AND USE THEREOF” (Increland, priority 2023, published 2026)
